Laboratory results taken from PubChem BioAssay (NCI).
Where “and” joins values, the source holds several entries; their conditions need not be identical. Identical values can stand only once.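 Each compound was tested at five concentrations against cells in 96-well plates for 48 hours. Abbreviation: GI50, concentration required for 50% inhibition of growth. At the TGI there is no net growth.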

Tests used:
Experiment in all cases: DTP human tumour cell line panel, 48 h
OVCAR-4 ovarian = test system: OVCAR-4 ovarian
A498 renal = test system: A498 renal
SNB-75 CNS = test system: SNB-75 CNS
EKVX NSCLC = test system: EKVX NSCLC
NCI-H460 lung = test system: NCI-H460 lung
NCI-H226 lung = test system: NCI-H226 lung
SW-620 colon = test system: SW-620 colon
HOP-62 NSCLC = test system: HOP-62 NSCLC
HCT-15 colon = test system: HCT-15 colon
COLO 205 colon = test system: COLO 205 colon

Row | Compound | GI50 (OVCAR-4 ovarian) | TGI (OVCAR-4 ovarian) | GI50 (A498 renal) | TGI (A498 renal) | GI50 (SNB-75 CNS) | TGI (SNB-75 CNS) | GI50 (EKVX NSCLC) | TGI (EKVX NSCLC) | GI50 (NCI-H460 lung) | TGI (NCI-H460 lung) | GI50 (NCI-H226 lung) | TGI (NCI-H226 lung) | GI50 (SW-620 colon) | TGI (SW-620 colon) | GI50 (HOP-62 NSCLC) | TGI (HOP-62 NSCLC) | GI50 (HCT-15 colon) | TGI (HCT-15 colon) | GI50 (COLO 205 colon) | TGI (COLO 205 colon)
1 | O=c1nc2[nH]c3c(-c4n[nH]c(=O)[nH]c4=O)cccc3c2n[nH]1 | > 100 µM | > 100 µM | > 100 µM | > 100 µM | > 100 µM | > 100 µM | > 100 µM | > 100 µM | > 100 µM | > 100 µM | > 100 µM | > 100 µM | > 100 µM | > 100 µM | > 100 µM | > 100 µM | > 100 µM | > 100 µM | > 100 µM | > 100 µM
2 | CC1OC(OC2C(O[C@H]3CC[C@@]4(C)C(=CC[C@H]5[C@@H]6C[C@@H]7O[C@]8(CC[C@@H](C)CO8)[C@@H](C)[C@@H]7[C@@]6(C)CC[C@@H]54)C3)OC(CO)C(OC3OC(CO)C(O)C3O)C2O)C(O)C(O)C1O (stereo not given in full) | 1.08 µM | 2.2 µM and 2.26 µM | 0.733 µM | 1.62 µM and 1.98 µM | – | 1.62 µM | 1.05 µM | 1.77 µM and 2.23 µM | – | 1.53 µM | – | 1.73 µM | 0.195 µM | 2.57 µM and 0.419 µM | 1.13 µM | 1.84 µM and 2.34 µM | 0.621 µM | 1.99 µM and 1.94 µM | 0.381 µM | 1.24 µM and 1.29 µM
3 | COc1ccc(-c2cc(-c3ccco3)c(C#N)c(=O)[nH]2)cc1 | – | > 100 µM | – | > 100 µM | – | > 100 µM | – | > 100 µM | – | > 100 µM | – | > 100 µM | – | > 100 µM | – | 72.1 µM | – | > 100 µM | – | > 100 µM
4 | Nc1ccc(C(=O)/C=C/c2ccccc2O)cc1 | – | > 100 µM | – | > 100 µM | – | > 100 µM | – | > 100 µM | – | > 100 µM | – | > 100 µM | – | > 100 µM | – | > 100 µM | – | > 100 µM | – | > 100 µM
5 | CCN(CC)CCOc1ccc2c(C)c(C(=O)OC)oc2c1C(=O)/C=C/c1ccc(OC)cc1 | 2.43 µM | 6.85 µM | 22.8 µM | 44.4 µM | 2.81 µM | 8.44 µM | 19.7 µM | 36.5 µM | 3.65 µM | > 67.4 µM | 25.3 µM | 44.9 µM | 22.7 µM | 47.7 µM | 28.5 µM | > 55.6 µM | 1.31 µM | 3.57 µM | 4.03 µM | –
6 | NC(=O)c1ncn(C2OC(CO)C(O)C2O)c1N (stereo not given) | > 100 µM | > 100 µM | > 100 µM | > 100 µM | > 100 µM | > 100 µM | > 100 µM | > 100 µM | > 100 µM | > 100 µM | > 100 µM | > 100 µM | > 100 µM | > 100 µM | > 100 µM | > 100 µM | > 100 µM | > 100 µM | > 100 µM | > 100 µM
7 | C=C1CC/C=C(\C)CC[C@H](C(=C)C)[C@@H](O)/C=C(/CO)CCC1O (stereo not given in full) | > 100 µM | > 100 µM | > 100 µM | > 100 µM | > 100 µM | > 100 µM | 60.4 µM | > 100 µM | 54.8 µM | > 100 µM | > 100 µM | > 100 µM | 72.8 µM | > 100 µM | > 100 µM | > 100 µM | > 100 µM | > 100 µM | 88.2 µM | > 100 µM
8 | O=C(Nc1ccc(C(F)(F)F)cc1[N+](=O)[O-])c1cccnc1 | – | > 100 µM | – | > 100 µM | – | > 100 µM | – | > 100 µM | – | 36.8 µM | – | > 100 µM | – | > 100 µM | – | > 100 µM | – | > 100 µM | – | > 100 µM
9 | O=C(N/N=C/c1ccc(F)cc1)c1ccc(C(F)(F)F)nc1Nc1cccc(C(F)(F)F)c1 | 0.339 µM | 6.55 µM | 1.59 µM | 4.65 µM | 1.64 µM | 10.2 µM | 0.713 µM | 4.64 µM | 1.29 µM | 3.08 µM | 1.26 µM | 4.17 µM | 0.959 µM | 8.44 µM | 1.2 µM | 4.85 µM | 0.351 µM | 1.87 µM | 1.56 µM | 3.47 µM
10 | Cn1ccnc1C(=O)/C=C/c1ccc(C(=O)Nc2c(F)c(F)c(F)c(F)c2F)cc1 | 1.53 µM | 4.52 µM | 1.36 µM | 3.16 µM | 1.33 µM | 2.69 µM | 2.36 µM | 5.85 µM | 1.78 µM | 5.11 µM | 2.7 µM | 8.49 µM | 1.19 µM | 2.86 µM | 2.77 µM | 8.71 µM | 1.11 µM | 4.3 µM | 1.82 µM | 3.63 µM
11 | COc1cc(CCc2ccc(OC(C)=O)cc2)cc(OC)c1OC | – | > 100 µM | – | > 100 µM | – | > 100 µM | – | > 100 µM | – | > 100 µM | – | > 100 µM | – | > 100 µM | – | > 100 µM | – | > 100 µM | – | > 100 µM
12 | O=NN(CCCl)C(=O)NC1CCCCC1 | 20 µM | 90.8 µM and 155 µM and 87.1 µM | – | 155 µM | 23.3 µM and 42.1 µM | 64.5 µM and 112 µM and 108 µM | 92.3 µM | 160 µM and 224 µM | 24.1 µM and 67.7 µM | 69.2 µM and 124 µM and 187 µM | 25.2 µM | 68.2 µM and 150 µM and 180 µM | 18.3 µM and 44.1 µM | 45.9 µM and 108 µM and 98.7 µM | 51.9 µM and 113 µM | 154 µM and 213 µM | 16.8 µM and 54.7 µM | 33.5 µM and 103 µM and 115 µM | 20.3 µM and 57.1 µM | 36.7 µM and 102 µM and 87.8 µM
13 | COc1ccc(OCC(O)CN2CCN(c3ccc(Cl)cc3)CC2)cc1 (stereo not given) | > 100 µM | > 100 µM | > 100 µM | > 100 µM | 17 µM | 83.5 µM | 9.82 µM | > 100 µM | > 100 µM | > 100 µM | 37.9 µM | > 100 µM | > 100 µM | > 100 µM | 28.4 µM | > 100 µM | > 100 µM | > 100 µM | > 100 µM | > 100 µM
14 | Nc1ncnc2c1nc(Cl)n2C1OC(CO)C(O)C1O (stereo not given) | – | > 100 µM | – | > 100 µM | – | > 56.6 µM | – | > 71.1 µM | – | > 100 µM | – | > 85.2 µM | – | > 100 µM | – | > 100 µM | – | > 100 µM | – | > 100 µM
